Entries after “also recorded” stand apart in the source; their conditions may differ.
Columns and labels:
T98G cells = assay: Irradiation-induced cell death, PS externalization/PI permeabilization by flow cytometry; format: cell-based, human; conditions: for irradiation induced cell death (PS externalization/PI permeability): drug 1-h prior to 25 Gy γ-irradiation, glyburide 12.5-200 μM, 72 h post-irradiation
Method: (§1) Cells were cultured in fresh medium prior to irradiation and were γ-irradiated with a Shepherd model 143-45A irradiator (J. L. Shepherd & Associates, CA) at a dose rate of 4 Gy/min. Cells were incubated with drugs at the indicated concentrations 1 h before or 30 min after irradiation. Cell viability was determined using phosphatidylserine (PS) externalization/propidium iodide (PI) permeabilization assay or LDH Assay after 72 h post-irradiation incubation.
(§2) After 72 h post-irradiation incubation, attached cells were harvested by trypsinization and pooled with detached cells from supernatant. Harvested cells were then stained with annexin-V-FITC and PI for 5 min in the dark prior to flow cytometry analysis (FACscan, Becton-Dickinson, Rutherford, N.J.). Cell debris was gated out by forward and side scatter under the same conditions, and a minimum of 10,000 gated cells were acquired. Percentages of annexin-V-positive cells were calculated by combining annexin V+/PI− (early apoptotic) and annexin V+/PI+ (late apoptotic or necrotic) cells.
In the present study, we selected 10 chemicals that targeted 13 candidate siRNA gene transcripts for further study (Table 3). The radioprotective effects of the compounds were tested in T98G cells, which were initially used in the siRNA screen. […] The other nine chemicals lacked any obvious protective effect on γ-irradiation induced cell death under the current experimental conditions (FIG. 4A).

BEAS-2B cells = assay: Irradiation-induced cell death, flow cytometry; format: cell-based, human; conditions: 1-h prior to irradiation (10 Gy)
Method: as §1, §2
(§3) Cells were exposed to γ-irradiation at different doses (10 or 25 Gy) based on their radiosensitivity. […] The mechanisms responsible for the differences in glyburide response are not known but are worthy of further investigation.

U-87 MG cells = assay: Irradiation-induced cell death, flow cytometry; format: cell-based, human; conditions: 1-h prior to irradiation (10 Gy)
Method: as §1, §2, §3

human primary astrocytes = assay: Irradiation-induced cell death, LDH release assay; format: cell-based; conditions: 50 and 100 μM, 1-h prior to irradiation (25 Gy)
Method: as §1
For human primary astrocytes, cell viability was determined by assaying the medium from each sample for LDH activity according to the manufacturer's instructions (Sigma). The enzyme activity from the culture medium and floating cells were used as an index of cell death. To determine total LDH activity, the adherent cells were lysed in 0.5% Triton X-100 and assayed for LDH activity, this cell-associated LDH activity was then added to the LDH activity in the removed culture medium. The amount of LDH present in the medium was calculated as a percentage of the total, which was used to calculate the percent cell death in the corresponding samples.
as §3

H1299 cells = assay: Irradiation-induced cell death, cell-based assay; set-up: species or system human; conditions: γ-irradiated (10 or 25 Gy), data not shown
Method: as §1, §3

HeLa cells = assay: Irradiation-induced cell death, cell-based assay; set-up: species or system human; conditions: γ-irradiated (10 or 25 Gy), data not shown
Method: as §1, §3

KM101 cells = assay: Irradiation-induced cell death, cell-based assay; set-up: species or system human; conditions: γ-irradiated (10 or 25 Gy), data not shown
Method: as §1, §3

32D cl 3 cells = assay: In vitro irradiation survival curves (clonogenic survival assay); format: cell-based, mouse
Method: The cells were irradiated with doses ranging from 0 to 8 Gy. The 32D cl 3 cells were plated in methycellulose, incubated at 37° C. for one week at which time colonies of greater than 50 cells were counted (Epperly, M. W. et al. Mitochondrial localization of superoxide dismutase is required for decreasing radiation induced cell damage. Radiat. Res. 160, 568-578 (2003) and Epperly, M. W. et al. Ethyl pyruvate, a potentially effective total body irradiation damage mitigator. Radiat. Res. 168, 552-559 (2007)). The data were analyzed using linear quadratic and single-hit, multi-target models (Id.).

C57BL/6NHsd female mice = assay: In vivo irradiation survival curves, total body irradiation; set-up: species or system mouse
From the text: Other groups of mice were control mice, or vehicle only irradiated mice.
The mice were followed for the development of irradiation induced damage to the hematopoietic system which occurs within the first 30 days after irradiation (FIG. 7).

[1] = Hypoglycemia at the dose of glyburide used in the present study; format: in vivo

**Q.** With COc1ccc(Cl)cc1C(=O)NCCc1ccc(S(=O)(=O)NC(=O)NC2CCCCC2)cc1 [glyburide, 5-chloro-N-[2-[4-(cyclohexylcarbamoylsulfamoyl)phenyl]ethyl]-2-methoxy-benzamide] as the molecule, how does the “protection over a range of irradiation exposure” value (T98G cells; 200 μM, 1-h prior to 5-25 Gy) read?
**A.** effectively protected cells

**Q.** What about the “irradiation induced apoptosis, post-irradiation treatment” value (T98G cells; added 30-min after γ-irradiation (25 Gy)) of the same molecule?
**A.** protected cells from irradiation induced apoptosis to a similar extent

**Q.** And the “irradiation induced cell death (PS externalization/PI permeability)” value (T98G cells)?
**A.** attenuated irradiation induced cell death in a concentration-dependent manner; also recorded: demonstrated radioprotective effect

**Q.** What about the “irradiation induced cell death (PS externalization/PI permeability)” value (T98G cells; listed as Glyburide) of the same molecule?
**A.** effectively relieved irradiation induced cell death

**Q.** What about the radioprotection (BEAS-2B cells) of the same molecule?
**A.** effective radioprotection

**Q.** And the radioprotection (BEAS-2B cells; listed as Glyburide)?
**A.** effectively relieved irradiation induced cell death

**Q.** What about the radioprotection (U-87 MG cells) of the same molecule?
**A.** effective radioprotection

**Q.** What about the radioprotection (U-87 MG cells; listed as Glyburide) of the same molecule?
**A.** effectively relieved irradiation induced cell death

**Q.** And the radioprotection (human primary astrocytes)?
**A.** effective radioprotection

**Q.** What about the radioprotection (human primary astrocytes; listed as Glyburide) of the same molecule?
**A.** effectively relieved irradiation induced cell death

**Q.** And the radioprotection (H1299 cells)?
**A.** no protective effect; also recorded: only limited protection

**Q.** And the radioprotection (HeLa cells)?
**A.** no protective effect; also recorded: only limited protection

**Q.** What about the radioprotection (KM101 cells) of the same molecule?
**A.** no protective effect; also recorded: only limited protection

**Q.** And the “n or shoulder on the irradiation survival curve” value (32D cl 3 cells; 10 μM in methylcellulose following irradiation (0-8 Gy))?
**A.** 2.5±0.9

**Q.** And the “survival of 32D cl 3 cells” value (32D cl 3 cells; 10 μM, 1-h before irradiation (0-8 Gy))?
**A.** significantly increased the survival

**Q.** What about the “survival compared to irradiated controls” value (C57BL/6NHsd female mice; 5 mg/kg i.p. 10 min after 9.5 Gy total body irradiation) of the same molecule?
**A.** no significant increase in survival; also recorded: not protected from irradiation

**Q.** And the “survival compared to irradiated controls and vehicle only” value (C57BL/6NHsd female mice; 5 mg/kg i.p. 10 min before 9.5 Gy total body irradiation, P=0.04)?
**A.** significantly increased survival; also recorded: protected as seen by an increase in survival; also recorded: increased the survival rate

**Q.** And the mice survived (C57BL/6NHsd female mice; 5 mg/kg intraperitoneal 10 min before 9.5 Gy total body irradiation)?
**A.** 60%

**Q.** What about the mice survived (C57BL/6NHsd female mice; glyburide injected 10-min after 9.5 Gy total body irradiation) of the same molecule?
**A.** 44%

**Q.** And the hypoglycemia [1]?
**A.** did not cause hypoglycemia

Reference: patent US8883852B2, “Radioprotective agents” (University of Pittburgh—Of the Commonwealth System of …, priority 2008, dated 2014)
